Assay results from ChEMBL document CHEMBL3045082, “Novel quinazolinone derivatives: synthesis and antimicrobial activity” (2013).
In brackets after ≈: the same amount, converted by molar mass. Activity calls are given as the source filed them. The rule behind the calls is not given here.

Experiments:
Fusarium oxysporum [1] = experiment: Antimicrobial activity against Fusarium oxysporum assessed as growth inhibition after 24 to 48 hr by two-fold serial dilution method; type: functional
Pseudomonas fluorescens [2] = experiment: Antimicrobial activity against Pseudomonas fluorescens S 97 assessed as growth inhibition after 24 to 48 hr by two-fold serial dilution method; type: functional
Streptococcus pyogenes [3] = experiment: Antimicrobial activity against Streptococcus pyogenes ATCC 19615 assessed as growth inhibition after 24 to 48 hr by two-fold serial dilution method; type: functional
Staphylococcus aureus [4] = experiment: Antimicrobial activity against Staphylococcus aureus ATCC 25923 assessed as growth inhibition after 24 to 48 hr by two-fold serial dilution method; type: functional
Fusarium oxysporum [5] = experiment: Antimicrobial activity against Fusarium oxysporum assessed as diameter of growth inhibition zone at 1 mg/ml […] by agar diffusion method; type: functional; conditions: read-out: DIZ
Pseudomonas fluorescens [6] = experiment: Antimicrobial activity against Pseudomonas fluorescens S 97 assessed as diameter of growth inhibition zone at 1 mg/ml after 24 hr by agar diffusion method; type: functional; conditions: S 97, 24 h, read-out: DIZ
[7] = system: Pseudomonas savastanoi pv. phaseolicola; experiment: Antimicrobial activity against Pseudomonas syringae pv. phaseolicola GSPB 2828 assessed as diameter of growth inhibition zone at 1 mg/ml after 24 hr by agar diffusion method; type: functional; conditions: GSPB 2828, 24 h, read-out: DIZ
Streptococcus pyogenes [8] = experiment: Antimicrobial activity against Streptococcus pyogenes ATCC 19615 assessed as diameter of growth inhibition zone at 1 mg/ml after 24 hr by agar diffusion method; type: functional; conditions: ATCC 19615, 24 h, read-out: DIZ
Staphylococcus aureus [9] = experiment: Antimicrobial activity against Staphylococcus aureus ATCC 25923 assessed as diameter of growth inhibition zone at 1 mg/ml after 24 hr by agar diffusion method; type: functional; conditions: ATCC 25923, 24 h, read-out: DIZ
Aspergillus fumigatus [10] = experiment: Antimicrobial activity against Aspergillus fumigatus assessed as diameter of growth inhibition zone at 1 mg/ml by agar diffusion method; conditions: read-out: DIZ
[11] = system: Pseudomonas savastanoi pv. phaseolicola; experiment: Antimicrobial activity against Pseudomonas syringae pv. phaseolicola GSPB 2828 assessed as growth inhibition after 24 to 48 hr by two-fold serial dilution method; type: functional
Aspergillus fumigatus [12] = experiment: Antimicrobial activity against Aspergillus fumigatus assessed as growth inhibition after 24 to 48 hr by two-fold serial dilution method; type: functional
Staphylococcus aureus [13] = experiment: Antimicrobial activity against Staphylococcus aureus ATCC 25923 assessed as growth inhibition after 24 to 48 hr by two-fold serial dilution method relative to cephalothin; type: functional
Staphylococcus aureus [14] = experiment: Antimicrobial activity against Staphylococcus aureus ATCC 25923 assessed as growth inhibition after 24 to 48 hr by two-fold serial dilution method relative to chloramphenicol; type: functional
Streptococcus pyogenes [15] = experiment: Antimicrobial activity against Streptococcus pyogenes ATCC 19615 assessed as growth inhibition after 24 to 48 hr by two-fold serial dilution method relative to chloramphenicol; type: functional

Structure (SMILES) | MIC (Fusarium oxysporum [1]) | MIC (Pseudomonas fluorescens [2]) | MIC (Streptococcus pyogenes [3]) | MIC (Staphylococcus aureus [4]) | MIC [11] | MIC (Aspergillus fumigatus [12]) | zone of inhibition at 1000 µg/mL (Fusarium oxysporum [5]) | zone of inhibition at 1000 µg/mL (Pseudomonas fluorescens [6]) | zone of inhibition at 1000 µg/mL [7] | zone of inhibition at 1000 µg/mL (Streptococcus pyogenes [8]) | zone of inhibition at 1000 µg/mL (Staphylococcus aureus [9]) | zone of inhibition at 1000 µg/mL (Aspergillus fumigatus [10]) | growth inhibition (GI) (Staphylococcus aureus [13]) | growth inhibition (GI) (Staphylococcus aureus [14]) | growth inhibition (GI) (Streptococcus pyogenes [15])
Cc1ccc(S(=O)(=O)Oc2ccc(C3=Nc4ccccc4C4=NCCN34)cc2)cc1 | – | 50 µg/mL (≈ 120 µM) | 6.25 µg/mL (≈ 15 µM) | 25 µg/mL (≈ 59.9 µM) | 25 µg/mL (≈ 59.9 µM) | – | 15 mm | 19 mm | 26 mm | 37 mm | 25 mm | 14 mm | – | – | –
Cc1ccc(S(=O)(=O)Oc2ccc(-c3nc4ccccc4c(=O)n3-n3c(C)nc4ccccc4c3=O)cc2)cc1 | – | 50 µg/mL (≈ 90.8 µM) | – | 50 µg/mL (≈ 90.8 µM) | – | 6.25 µg/mL (≈ 11.4 µM) | 15 mm | 19 mm | 14 mm | 15 mm | 19 mm | 38 mm | – | – | –
Cc1ccc(S(=O)(=O)Oc2ccc(-c3nc4ccccc4c4nc(=O)[nH]n34)cc2)cc1 | 50 µg/mL (≈ 116 µM) | – | – | – | 6.25 µg/mL (≈ 14.5 µM) | – | 19 mm | 15 mm | 38 mm | 15 mm | 15 mm | 15 mm | – | – | –
Cc1ccc(S(=O)(=O)Oc2ccc(-c3nnnn3-c3ccccc3C(=O)O)cc2)cc1 | 50 µg/mL (≈ 115 µM) | 50 µg/mL (≈ 115 µM) | 6.25 µg/mL (≈ 14.3 µM) | 12.5 µg/mL (≈ 28.6 µM) | – | inactive | 19 mm | 20 mm | 14 mm | 38 mm | 32 mm | – | 50% | 25% | –
Cc1ccc(S(=O)(=O)Oc2ccc(-c3nc4ccccc4c(=O)n3-c3nc4ccccc4s3)cc2)cc1 | – | 50 µg/mL (≈ 95.1 µM) | 6.25 µg/mL (≈ 11.9 µM) | 6.25 µg/mL (≈ 11.9 µM) | 50 µg/mL (≈ 95.1 µM) | inactive | 14 mm | 20 mm | 19 mm | 37 mm | 38 mm | – | – | 50% | 50%
Cc1ccc(S(=O)(=O)Oc2ccc(-c3nc4ccccc4c(=O)n3-c3ccc(N)cc3)cc2)cc1 | 6.25 µg/mL (≈ 12.9 µM) | 50 µg/mL (≈ 103 µM) | – | – | – | 25 µg/mL (≈ 51.7 µM) | 37 mm | 18 mm | 15 mm | 15 mm | 14 mm | 26 mm | – | – | –
C[C@@H]1C[C@@H]([C@H](O)CC2CC(=O)NC(=O)C2)C(=O)[C@@H](C)C1 [CYCLOHEXIMIDE] | 3.12 µg/mL (≈ 11.1 µM) | – | – | – | – | 3.12 µg/mL (≈ 11.1 µM) | 43 mm | – | – | – | – | 42 mm | – | – | –
Cc1ccc(S(=O)(=O)Oc2ccc(-c3nc4ccccc4c4nc5ccccc5n34)cc2)cc1 | – | 6.25 µg/mL (≈ 13.4 µM) | 25 µg/mL (≈ 53.7 µM) | 25 µg/mL (≈ 53.7 µM) | – | 50 µg/mL (≈ 107 µM) | 16 mm | 37 mm | 14 mm | 25 mm | 26 mm | 20 mm | – | – | –
Cc1ccc(S(=O)(=O)Oc2ccc(-c3nc4ccccc4c(=O)n3-c3nccs3)cc2)cc1 | – | – | 6.25 µg/mL (≈ 13.1 µM) | 6.25 µg/mL (≈ 13.1 µM) | – | 50 µg/mL (≈ 105 µM) | 15 mm | 16 mm | 14 mm | 38 mm | 38 mm | 19 mm | – | 50% | 50%
Cc1ccc(S(=O)(=O)Oc2ccc(C(=O)Nc3ccccc3-c3nc4ccccc4[nH]3)cc2)cc1 | – | – | 25 µg/mL (≈ 51.7 µM) | 25 µg/mL (≈ 51.7 µM) | 50 µg/mL (≈ 103 µM) | inactive | 15 mm | 14 mm | 19 mm | 25 mm | 25 mm | – | – | – | –

Now from value to molecule, other results behind:

MIC (Fusarium oxysporum [1]) | MIC (Pseudomonas fluorescens [2]) | MIC (Streptococcus pyogenes [3]) | MIC (Staphylococcus aureus [4]) | MIC [11] | MIC (Aspergillus fumigatus [12]) | Structure (SMILES) | zone of inhibition at 1000 µg/mL (Fusarium oxysporum [5]) | zone of inhibition at 1000 µg/mL (Pseudomonas fluorescens [6]) | zone of inhibition at 1000 µg/mL [7] | zone of inhibition at 1000 µg/mL (Streptococcus pyogenes [8]) | zone of inhibition at 1000 µg/mL (Staphylococcus aureus [9]) | zone of inhibition at 1000 µg/mL (Aspergillus fumigatus [10]) | growth inhibition (GI) (Staphylococcus aureus [13]) | growth inhibition (GI) (Staphylococcus aureus [14]) | growth inhibition (GI) (Streptococcus pyogenes [15])
25 µg/mL (≈ 55.7 µM) | 50 µg/mL (≈ 111 µM) | 6.25 µg/mL (≈ 13.9 µM) | 3.12 µg/mL (≈ 6.97 µM) | – | – | Cc1ccc(S(=O)(=O)Oc2ccc(-c3nc4ccccc4c4nc(=S)[nH]n34)cc2)cc1 | 26 mm | 19 mm | 15 mm | 37 mm | 44 mm | 14 mm | – | – | –
– | 6.25 µg/mL (≈ 19.3 µM) | 3.12 µg/mL (≈ 9.67 µM) | 3.12 µg/mL (≈ 9.67 µM) | 6.25 µg/mL (≈ 19.3 µM) | – | O=C(N[C@H](CO)[C@H](O)c1ccc([N+](=O)[O-])cc1)C(Cl)Cl [CHLORAMPHENICOL] | – | 38 mm | 37 mm | 44 mm | 42 mm | – | – | – | –
– | 6.25 µg/mL (≈ 15.8 µM) | 6.25 µg/mL (≈ 15.8 µM) | 6.25 µg/mL (≈ 15.8 µM) | 6.25 µg/mL (≈ 15.8 µM) | – | CC(=O)OCC1=C(C(=O)O)N2C(=O)[C@@H](NC(=O)Cc3cccs3)[C@H]2SC1 [CEPHALOTHIN] | – | 37 mm | 38 mm | 37 mm | 36 mm | – | – | – | –
– | inactive | 6.25 µg/mL (≈ 9.97 µM) | 3.12 µg/mL (≈ 4.99 µM) | 50 µg/mL (≈ 79.8 µM) | 12.5 µg/mL (≈ 19.9 µM) | Cc1ccc(C2CC(c3ccc(-n4c(-c5ccc(OS(=O)(=O)c6ccc(C)cc6)cc5)nc5ccccc5c4=O)cc3)=NN2)cc1 (stereo not drawn) | 14 mm | – | 19 mm | 38 mm | 43 mm | 31 mm | – | – | 50%
– | inactive | 6.25 µg/mL (≈ 10.2 µM) | 3.12 µg/mL (≈ 5.1 µM) | 50 µg/mL (≈ 81.6 µM) | 12.5 µg/mL (≈ 20.4 µM) | Cc1ccc(S(=O)(=O)Oc2ccc(-c3nc4ccccc4c(=O)n3-c3ccc(C4=NNC(c5ccccc5)C4)cc3)cc2)cc1 (stereo not drawn) | 14 mm | – | 19 mm | 38 mm | 43 mm | 31 mm | – | – | 50%
– | inactive | 6.25 µg/mL (≈ 9.72 µM) | 3.12 µg/mL (≈ 4.86 µM) | 50 µg/mL (≈ 77.8 µM) | 12.5 µg/mL (≈ 19.4 µM) | COc1ccc(C2CC(c3ccc(-n4c(-c5ccc(OS(=O)(=O)c6ccc(C)cc6)cc5)nc5ccccc5c4=O)cc3)=NN2)cc1 (stereo not drawn) | 14 mm | – | 19 mm | 38 mm | 43 mm | 31 mm | – | – | 50%
